Structures can show the parent of a compound that is named as a salt.

Sequence of recombinant Human Phosphodiesterase B2 (PDE4B2) (Q07343 1-564 isoform Q07343-2): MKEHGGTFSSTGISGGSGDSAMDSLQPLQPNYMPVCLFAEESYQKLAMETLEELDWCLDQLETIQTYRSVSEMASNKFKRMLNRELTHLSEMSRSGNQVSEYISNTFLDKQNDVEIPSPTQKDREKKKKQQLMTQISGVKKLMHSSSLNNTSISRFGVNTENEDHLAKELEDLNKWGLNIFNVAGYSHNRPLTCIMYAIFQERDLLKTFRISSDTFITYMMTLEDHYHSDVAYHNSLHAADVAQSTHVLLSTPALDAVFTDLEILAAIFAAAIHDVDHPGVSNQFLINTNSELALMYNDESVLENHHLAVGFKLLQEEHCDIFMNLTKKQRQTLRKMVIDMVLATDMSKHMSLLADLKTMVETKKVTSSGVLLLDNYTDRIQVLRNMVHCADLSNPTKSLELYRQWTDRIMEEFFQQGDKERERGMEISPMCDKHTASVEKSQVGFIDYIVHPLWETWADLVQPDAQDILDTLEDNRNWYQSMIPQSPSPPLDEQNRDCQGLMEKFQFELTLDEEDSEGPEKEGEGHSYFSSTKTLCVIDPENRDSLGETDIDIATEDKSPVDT

This test has as its target recombinant Human Phosphodiesterase B2 (PDE4B2) (Homo sapiens, UniProt Q07343). In words: Human Phosphodiesterase B2 Radiometric Assay (yttrium silicate SPA beads, [3H]cyclic AMP). Format: biochemical. Conditions: recombinant human PDE4B2, radiometric SPA assay, 8 nM [3H]cyclic AMP; read-out: PDE4B2 pIC50 (converted). As to the method: Human Phosphodiesterase B2 Radiometric Assay
The assay uses recombinant Human Phosphodiesterase B2 (PDE4B2) produced in house (PrAZL0163), stored at −20° C. This assay is based on the observation that 5′AMP, the product of the reaction catalysed by PDE4, binds preferentially to yttrium silicate SPA beads (Amersham Biosciences, UK) compared to the substrate, cAMP. Compounds at the appropriate concentration were preincubated at 30 C for 30 min with an assay buffer containing 50 mM HEPES (pH 7.5), 8.3 mM MgCl2, 1.7 mM EGTA, 0.01% (w/v) Brij° 35 and 0.1 mg/mL recombinant PDE4B2. The reaction was started by the addition of [3H]cyclic AMP to give a final concentration of 8 nM, and was stopped 20 minutes after the addition of the substrate by the addition of yttrium silicate SPA beads containing 18 mM Zn SO4. Bound [3H]cyclic AMP was measured using a Topcount NXT (Packard Bioscience, UK). pIC50 values (presented in Table 15) were determined using Xlfit3 curve fitting, using model 205.
As to `O=C(N[C@H]1CC[C@@H](n2c(=O)c3cc(F)cnc3n(-c3cccc(-c4ccc(CN5CCCCC5)cc4)c3)c2=O)CC1)c1cn2c(n1)CCCC2` [Example 119, N-{cis-4-[6-fluoro-2,4-dioxo-1-[4′-(piperidin-1-ylmethyl)biphenyl-3-yl]-1,4-dihydropyrido[2,3-d]pyrimidin-3(2H)-yl]cyclohexyl}-5,6,7,8-tetrahydroimidazo[1,2-a]pyridine-2-carboxamide], the IC50 was 0.316 nM.
Regarding `O=C(N[C@H]1CC[C@@H](n2c(=O)c3cc(F)cnc3n(-c3cccc(-c4ccc(CN5CCNCC5)cc4Br)c3)c2=O)CC1)c1cn2cc(F)ccc2n1` [Example 229, N-{cis-4-[1-[2′-Bromo-4′-(piperazin-1-ylmethyl)biphenyl-3-yl]-6-fluoro-2,4-dioxo-1,4-dihydropyrido[2,3-d]pyrimidin-3(2H)-yl]cyclohexyl}-6-fluoroimidazo[1,2-a]pyridine-2-carboxamide], the IC50 is 0.00631 nM.
As for `Cc1cc(C(=O)N[C@H]2CC[C@@H](n3c(=O)c4cc(F)cnc4n(-c4cccc(-c5ccc(CN6CCOCC6)cc5)c4)c3=O)CC2)nn1C` [Example 108, N-{cis-4-[6-fluoro-1-[4′-(morpholin-4-ylmethyl)biphenyl-3-yl]-2,4-dioxo-1,4-dihydropyrido[2,3-d]pyrimidin-3(2H)-yl]cyclohexyl}-1,5-dimethyl-1H-pyrazole-3-carboxamide], the IC50 is 0.00794 nM.
Then `CN(C)CCN(C)Cc1ccc(-c2cccc(-n3c(=O)n([C@H]4CC[C@@H](NC(=O)C5(N(C)C)CC5)CC4)c(=O)c4cc(F)cnc43)c2)cc1` [Example 110, 1-(dimethylamino)-N-{cis-4-[1-(4′-{[[2-(dimethylamino)ethyl](methyl)amino]methyl}biphenyl-3-yl)-6-fluoro-2,4-dioxo-1,4-dihydropyrido[2,3-d]pyrimidin-3(2H)-yl]cyclohexyl}cyclopropanecarboxamide], with 0.00794 nM; and `CN(C)C(=O)CN1CCN(Cc2ccc(-c3cccc(-n4c(=O)n([C@H]5CC[C@@H](NC(=O)c6cn7c(n6)CCCC7)CC5)c(=O)c5cc(F)cnc54)c3)cc2)CC1` [Example 137, N-{cis-4-[1-[4′-({4-[2-(dimethylamino)-2-oxoethyl]piperazin-1-yl}methyl)biphenyl-3-yl]-6-fluoro-2,4-dioxo-1,4-dihydropyrido[2,3-d]pyrimidin-3(2H)-yl]cyclohexyl}-5,6,7,8-tetrahydroimidazo[1,2-a]pyridine-2-carboxamide], with 0.0126 nM; and `O=C(N[C@H]1CC[C@@H](n2c(=O)c3cc(F)cnc3n(-c3cccc(-c4ccc(C(F)(F)F)cc4)c3)c2=O)CC1)c1cn2cc(F)ccc2n1` [Example 29, 6-fluoro-N-{cis-4-[6-fluoro-2,4-dioxo-1-[4′-(trifluoromethyl)biphenyl-3-yl]-1,4-dihydropyrido[2,3-d]pyrimidin-3(2H)-yl]cyclohexyl}imidazo[1,2-a]pyridine-2-carboxamide.], with 0.0794 nM.
In the case of `CN(C)Cc1ccc(-c2cccc(-n3c(=O)n([C@H]4CC[C@@H](NC(=O)c5cn6cc(F)ccc6n5)CC4)c(=O)c4cc(F)cnc43)c2)c(O)c1` [Example 94, N-{cis-4-[1-{4′-[(dimethylamino)methyl]-2′-hydroxybiphenyl-3-yl}-6-fluoro-2,4-dioxo-1,4-dihydropyrido[2,3-d]pyrimidin-3(2H)-yl]cyclohexyl}-6-fluoroimidazo[1,2-a]pyridine-2-carboxamide], the IC50 is 0.316 nM.
In the case of `Cc1cc(O)ccc1-c1cccc(-n2c(=O)n([C@H]3CC[C@@H](NC(=O)c4cn5cc(F)ccc5n4)CC3)c(=O)c3cc(F)cnc32)c1` [Example 23, 6-fluoro-N-{cis-4-[6-fluoro-1-(4′-hydroxy-2′-methylbiphenyl-3-yl)-2,4-dioxo-1,4-dihydropyrido[2,3-d]pyrimidin-3(2H)-yl]cyclohexyl}imidazo[1,2-a]pyridine-2-carboxamide.], the IC50 was 0.0398 nM.
Turning to `O=c1c2cc(F)cnc2n(-c2cccc(-c3ccc(O)cc3CN3CCOCC3)c2)c(=O)n1[C@H]1CC[C@@H](NCc2ccc(Cl)cc2)CC1` [Example 281, 3-{cis-4-{(4-chlorobenzyl)amino]cyclohexyl}-6-fluoro-1-[4′-hydroxy-2′-(morpholin-4-ylmethyl)biphenyl-3-yl]pyrido[2,3-d]pyrimidine-2,4(1H,3H)-dione], the IC50 is 1 nM.
With `O=C(N[C@H]1CC[C@@H](n2c(=O)c3cc(F)cnc3n(-c3cccc(Sc4ccccc4)c3)c2=O)CC1)c1cn2cc(F)ccc2n1` [Example 44, 6-fluoro-N-{cis-4-[6-fluoro-2,4-dioxo-1-[3-(phenylthio)phenyl]-1,4-dihydropyrido[2,3-d]pyrimidin-3(2H)-yl]cyclohexyl}imidazo[1,2-a]pyridine-2-carboxamide], the IC50 was 0.0631 nM.
In the case of `CN(C)[C@H]1CC[C@@H](n2c(=O)c3cc(F)cnc3n(-c3cccc(-c4ccccc4)c3)c2=O)CC1` [Example 66, 1-biphenyl-3-yl-3-[cis-4-(dimethylamino)cyclohexyl]-6-fluoropyrido[2,3-d]pyrimidine-2,4(1H,3H)-dione], the IC50 was 63.1 nM.
For the molecule `O=C(N[C@H]1CC[C@@H](n2c(=O)c3cc(F)cnc3n(-c3ccc(Cc4ccccc4)cc3)c2=O)CC1)c1cn2cc(F)ccc2n1` [Example 37, N-{cis-4-[1-(4-benzylphenyl)-6-fluoro-2,4-dioxo-1,4-dihydropyrido[2,3-d]pyrimidin-3(2H)-yl]cyclohexyl}-6-fluoroimidazo[1,2-a]pyridine-2-carboxamide], the IC50 is 6.31 nM.
In the case of `Cc1nc(C(=O)N[C@H]2CC[C@@H](n3c(=O)c4cc(F)cnc4n(-c4cccc(-c5ccc(CN6CCCN(C)CC6)cc5)c4)c3=O)CC2)cs1` [Example 309, N-{cis-4-[6-fluoro-1-{4′-[(4-methyl-1,4-diazepan-1-yl)methyl]biphenyl-3-yl}-2,4-dioxo-1,4-dihydropyrido[2,3-d]pyrimidin-3(2H)-yl]cyclohexyl}-2-methyl-1,3-thiazole-4-carboxamide], the IC50 is 0.1 nM.
Next, `O=C(N[C@H]1CC[C@@H](n2c(=O)c3cc(F)cnc3n(-c3cccc(-c4ccccn4)c3)c2=O)CC1)c1cn2cc(F)ccc2n1` [Example 55, 6-fluoro-N-{cis-4-[6-fluoro-2,4-dioxo-1-(3-pyridin-2-ylphenyl)-1,4-dihydropyrido[2,3-d]pyrimidin-3(2H)-yl]cyclohexyl}imidazo[1,2-a]pyridine-2-carboxamide]: 0.1 nM; `CC(C)(C)OC(=O)N1CCN(CC(=O)N[C@H]2CC[C@@H](n3c(=O)c4cc(F)cnc4n(-c4cccc(-c5ccccc5)c4)c3=O)CC2)CC1` [Example 105, tert-butyl 4-(2-{[cis-4-(1-biphenyl-3-yl-6-fluoro-2,4-dioxo-1,4-dihydropyrido[2,3-d]pyrimidin-3(2H)-yl)cyclohexyl]amino}-2-oxoethyl)piperazine-1-carboxylate]: 0.0251 nM; `O=C(N[C@H]1CC[C@@H](n2c(=O)c3cc(F)cnc3n(-c3cccc(-c4ccc(CO)cc4)c3)c2=O)CC1)c1cn2cc(F)ccc2n1` [Example 25, 6-fluoro-N-{cis-4-[6-fluoro-1-[4′-(hydroxymethyl)biphenyl-3-yl]-2,4-dioxo-1,4-dihydropyrido[2,3-d]pyrimidin-3(2H)-yl]cyclohexyl}imidazo[1,2-a]pyridine-2-carboxamide.]: 0.0251 nM.
`CN1CCN(Cc2cc(O)ccc2-c2cccc(-n3c(=O)n([C@H]4CC[C@@H](NC(=O)c5cn6cc(F)ccc6n5)CC4)c(=O)c4cc(F)cnc43)c2)CC1` [Example 71, 6-fluoro-N-{cis-4-[6-fluoro-1-{4′-hydroxy-2′-[(4-methylpiperazin-1-yl)methyl]biphenyl-3-yl}-2,4-dioxo-1,4-dihydropyrido[2,3-d]pyrimidin-3(2H)-yl]cyclohexyl}imidazo[1,2-a]pyridine-2-carboxamide trifluoroacetate salt]: the IC50 is 0.0794 nM.
`Cc1cc(C(=O)N[C@H]2CC[C@@H](n3c(=O)c4cc(F)cnc4n(-c4cccc(-c5ccc(CN(C)C(C)(C)C)cc5)c4)c3=O)CC2)nn1C` [Example 131, N-{cis-4-[1-(4′-{[tert-butyl(methyl)amino]methyl}biphenyl-3-yl)-6-fluoro-2,4-dioxo-1,4-dihydropyrido[2,3-d]pyrimidin-3(2H)-yl]cyclohexyl}-1,5-dimethyl-1H-pyrazole-3-carboxamide]: the IC50 is 0.126 nM.
Consider `CN(C)CCCOc1cc(F)ccc1-c1cccc(-n2c(=O)n([C@H]3CC[C@@H](NC(=O)c4cn5cc(F)ccc5n4)CC3)c(=O)c3cc(F)cnc32)c1` [Example 84, N-{cis-4-[1-{2′-[3-(dimethylamino)propoxy]-4′-fluorobiphenyl-3-yl}-6-fluoro-2,4-dioxo-1,4-dihydropyrido[2,3-d]pyrimidin-3(2H)-yl]cyclohexyl}-6-fluoroimidazo[1,2-a]pyridine-2-carboxamide], for which the IC50 was 0.2 nM.
With `C[C@H]1COCCN1Cc1cc(O)ccc1-c1cccc(-n2c(=O)n([C@H]3CC[C@@H](NCc4cn5cc(F)ccc5n4)CC3)c(=O)c3cc(F)cnc32)c1` [Example 317, 6-fluoro-3-(cis-4-{[(6-fluoroimidazo[1,2-a]pyridin-2-yl)methyl]amino}cyclohexyl)-1-(4′-hydroxy-2′-{[(3S)-3-methylmorpholin-4-yl]methyl}biphenyl-3-yl)pyrido[2,3-d]pyrimidine-2,4(1H,3H)-dione], the IC50 was 0.01 nM.

The values are drawn from US20100204203A1, “Chemical Compounds 637: Pyridopyrimidinediones as PDE4 Inhibitors” (priority 2007, published 2010).
